Reference: patent US20130129675A1, “INTERFERON THERAPIES IN COMBINATION WITH BLOCKADE OF STAT3 ACTIVATION” (BOARD OF REGENTS, THE UNIVERSITY OF TEXAS SYSTEM, priority 2009, published 2013)

Key:
B16 target cells = assay: Ex vivo splenocyte cytotoxicity assay; assay type: cell-based, mice; settings: 48 h
Source text: Spleens from 4- to 6-week-old female mice in the above treatment schema were harvested and disassociated into a single cell suspension. After erythrocytes were lysed with 1×RBC lysis buffer (eBioscience), splenocytes were washed once with RPMI 1640 medium and were ready as effector cells for the standard cytotoxicity assay. Wang L, Yi T, Kortylewski M, Pardoll D M, Zeng D, Yu H, IL-17 Can Promote Tumor Growth Through An IL-6-Stat3 Signaling Pathway, J Exp Med 2009; 206:1457-64. For target cells, B16 cells in RPMI 1640 medium were cultured for 3 days, trypsinized, pelleted, and resuspended in FACS buffer at room temperature to achieve a concentration of 10^6 cells/ml. Carboxy-fluorescein diacetate succinimidyl ester (CFSE) stock solution (CellTrace CFSE Cell Proliferation Kit; Invitrogen, Eugene, Oreg.) was added to achieve a final concentration of 4 μM. The mixture was incubated at 37° C. for 10 minutes, and then the staining reaction was quenched by the addition of five volumes of ice-cold PBS for 5 minutes. The B16 cells were washed three times in RPMI 1640 medium and plated for the cytotoxicity assay. The ratios of splenocyte effector cells to B16 target cells were 30:1 and 100:1. After 48 h of incubation, the CFSE-labeled B16 melanoma cells were removed from the plates with trypsin-EDTA (0.05%) and analyzed by FACS. The B16 cells were stained with propidium iodide (PI; BD Biosciences) to distinguish viable cells from nonviable cells. B16 cells that were stained with CFSE and PI were considered nonviable. Flow cytometric acquisition of the B16 target cells was performed with a FACSCalibur flow cytometer (BD Biosciences), and data analysis was performed using FlowJo software (TreeStar, Ashland, Oreg.).
To ascertain the underlying in vivo immunological mechanism that is responsible for the therapeutic efficacy, we examined splenocytes cytotoxic responses directed against B16 melanoma cells. Splenocytes from control mice and mice treated with WP1193, IFN-α, or IFN-α+WP1193 were isolated and co-cultured with CFSE-labeled B16 target cells for 48 hours to assess splenocyte cytotoxicity against B16 cells. […] Furthermore, in mice treated with both IFN-α and WP1193, there was additive enhanced cytotoxic clearance of the B16 target cells compared with mice that were treated with either WP1193 or IFN-α alone (P<0.01;).

Tregs (CD4+Foxp3+) = assay: Inhibition of Tregs in vivo; design: species or system mice; settings: for number of Foxp3+ Tregs in the thymus, lymph nodes, or spleen: alone or in combination; for % of CD4+ Foxp3+ Cells: bone marrow, control 24.5; for % of CD4+ Foxp3+ Cells / inhibition of the number of Tregs (CD4+Foxp3+) in the bone marrow: non-tumor bearing mice treated for 16 days; for inhibition of the number of Tregs (CD4+Foxp3+) in the peripheral blood / inhibition of the number of Tregs (CD4+Foxp3+) in the bone marrow: compared with control
Protocol: Determination of inhibition of Tregs in vivo. […] Single-cell suspensions were prepared from bone marrows, lymph nodes, spleens, thymuses and peripheral blood of mice. Single cells were surface-stained by FITC-conjugated anti-CD4 (L3T4), PerCP-conjugated anti-CD8 (53-6.7) and APC-conjugated anti-CD25 (PC61), and the cells were further subjected to intracellular staining with PE-conjugated mAbs to mouse FoxP3 (clone FJK-16s; eBioscience, San Diego, Calif.) using staining buffers and conditions specified by the manufacturer.
In vivo treatment of mice with IFN-α and WP1193 inhibits bone marrow-derived Tregs but combinational therapy is not synergistic. To ascertain the in vivo effects of IFN-α and WP1193, and in combination on Tregs, non-tumor bearing mice were treated for 16 days.

B16 cells = assay: MHC I, MHC II and NK cell ligands on B16 melanoma cells (flow cytometry); assay type: cell-based, murine; settings: WP1193 2 μM, IFN-α 20 ng/ml; for MHC I expression on B16: 24 hours (FIG. 6A); for surface H60, Rae-1 and CD155 (NK ligands) on B16: 24 hours (FIG. 6B)
Protocol: To ascertain the MHC I, MHC II, and NK ligands expressed on melanoma cells, B16 cells were seeded at a density of 2×10^6 cells/well in 24-well culture plates and cultured with the RPMI 1640 medium in the absence or presence of WP1193 (2 μM) and/or INF-α (20 ng/ml) for 24 hours. Afterwards, the cells were harvested and washed twice, and 10^6 cells in duplicate were Fc blocked with purified rat anti-mouse CD16/CD32 (BD Biosciences) for 15 minutes at room temperature. The B16 cells were washed and then stained for approximately 30 minutes at 4° C. with FITC-conjugated rat anti-mouse MHC I mAb (Abeam, Cambridge, Mass.), PE-conjugated rat anti-mouse MHC Class II mAb (Abeam), FITC-conjugated rat anti-mouse Rae-1 mAb (R&D Systems), APC-conjugated rat anti-mouse H60 mAb (R&D Systems) or PE-conjugated rat anti-mouse CD155 mAb (Biolegend). Negative control cells were stained with the corresponding isotypes. Following incubation, the cells were washed twice with FACS buffer and then analyzed with a BD FACSCalibur with gates set for viable cells.
Because we observed NK and CD8+ T cell-mediated anti-tumor cytotoxicity were enhanced with combinational therapy, to ascertain if either IFN-α, WP1193 or both were augmenting the expression of MHC or NK activating receptors or their ligands, splenocytes and B16 cells were treated with RPMI 1640 medium (control), WP1193 (2 μM), IFN-α (20 ng/ml), or IFN-α (20 ng/ml)+WP1193 (2 μM) for 24 hours. The NK-activating ligands (Rae-1, H60 and CD155) and MHC (I and II) on B16 cells and the NK-activating receptors (NKG2D, KLRD1, NKp46 and DNAM-1) on NK1.1+ NK cells were analyzed by flow cytometric analysis.

serum cytokines = assay: Serum cytokine levels (Bio-Plex); assay type: in vivo, C57BL/6J mice; settings: for IFN-gamma Concentration: control 1.5; for IL-1B Concentration: control 40.1; for TNF alpha Concentration: control 60.5
Protocol: Determination of serum cytokine levels. Groups of non-tumor bearing 4- to 6-week-old female mice were treated with either IFN-α or “empty” plasmid control, WP1193, or IFN-α in combination with WP1193 as described in FIG. 13. Blood was collected through a tail vein from mice 9 and 16 days after the first WP1193 administration. […] The assay was run according to the manufacturer's instruction (Bio-Rad) by the Immunology Core Service at MD Anderson Cancer Center (Houston, Tex.).
This experiment was reproduced twice in its entirety with identical findings.

[1] = 30:1 ratio of splenocytes to B16 Tumor Cells, control 25.2
[2] = 100:1 ratio of splenocytes to B16 Tumor Cells, control 38.1

| Compound | % of B16 Killimg (B16 target cells; [1]) [%] | % of B16 Killimg (B16 target cells; [2]) [%] | suppressive activity of sorted Tregs (Tregs (CD4+Foxp3+); FoxP3-GFP reporter mouse, IFN-α-treated or control) | number of Foxp3+ Tregs in the thymus, lymph nodes, or spleen (Tregs (CD4+Foxp3+)) | % of CD4+ Foxp3+ Cells (Tregs (CD4+Foxp3+)) [%] | inhibition of the number of Tregs (CD4+Foxp3+) in the peripheral blood (Tregs (CD4+Foxp3+)) [%] | inhibition of the number of Tregs (CD4+Foxp3+) in the bone marrow (Tregs (CD4+Foxp3+)) [%] | MHC I expression on B16 (B16 cells) | surface H60, Rae-1 and CD155 (NK ligands) on B16 (B16 cells) | IFN-gamma Concentration (serum cytokines) | IL-1B Concentration (serum cytokines) [pg/mL] | TNF alpha Concentration (serum cytokines) [pg/mL] |
| --- | --- | --- | --- | --- | --- | --- | --- | --- | --- | --- | --- | --- |
| IFN-α | 40.1 | 51.6 | did not see a decrease in the suppressive activity | did not inhibit | 5.2 | 46 | 78 | enhanced | do not alter the receptor density of the NK ligands | 20.2 pg/mL | 41.3 | 98.7 |
| N#C/C(=C\c1cccc(Br)n1)C(=O)N[C@H](c1ccccc1)C1CC1 [WP1193, (S,E)-3-(6-bromopyridin-2-yl)-2-cyano-N-(cyclopropyl(phenyl)methyl)acrylamide] | 29.8 | 42.0 | – | did not inhibit | 16.8 | 20 | 31 | not further enhanced | do not alter the receptor density of the NK ligands | Not detected | 20.0 | 60.0 |
